“Also recorded” adds a separate entry of the source.
Experiments:
[1] = tested on: Treg cells over Teff and NK cells; conditions: cited from earlier work
[2] = Pharmacokinetics of [aminopropyl]-IL-15 released from microsphere-IL-15; type: in vivo, C57BL/6J mice
Description: The microsphere-IL-15 slurry of Example 10 (275 nmol protein/mL) was diluted in 25 mM Na citrate buffer pH 5.9 containing 500 mM NaCl, 0.05% tween-20 and 1.25% (w/v) hyaluronic acid. For studies that required various doses of microsphere-IL15, serial dilutions were used obtain the desired microsphere-IL-15 concentration. In all cases, aseptic conditions were used to handle and prepare the microsphere conjugate. Syringes with fixed needles (27G) were backfilled with the conjugate (100 μL). The contents of the syringes were administered either s.c. or i.p. to normal, male C57BL/6J mice. Blood samples were drawn at −24, 4, 8, 24, 48, 96, 168 and 240 hours from alternating groups consisting of 3 mice each. HALT protease inhibitor cocktail (ThermoFisher Scientific) was added to all plasma samples prior to being frozen at −80° C. until analysis.
ELISAs for hIL-15 were performed according to the manufacturer's instructions (R&D Systems, hIL-15 Quantikine, Catalog #D1500) to determine the rhIL-15 plasma. Plasma samples were thawed on ice prior to dilution in the standard diluent provided by the manufacturer. The 4, 8, hour samples were diluted 50-fold, the 24 hour samples was diluted twenty-five fold, and the pre-bleed, 48, 96, 168 and 240 hour samples were diluted ten-fold. hIL-15 concentrations were plot as a function of time and fit using GraphPad Prism software.
Pharmacokinetics of [aminopropyl]-IL-15 released from the microsphere conjugate were measured in normal C57BL/6J mice. Mice were dosed with 2.4 nmol conjugated protein (200 μL injection). […] After approximately 120 hours, the observed concentration quickly decreases (FIG. 11). A one phase decay model fit of data through 120 results in a half-life of at least 200 hours. […] A second injection of MS-IL-15 (50 μg) increases the measured plasma IL-15 at 248 h to a similar concentration of the initial dose.

[3] = tested on: CD44hiCD8+ T cells and NK cells in PBMCs; test: Pharmacodynamics of [aminopropyl]-IL-15 released from microsphere-IL-15; type: in vivo, C57BL/6J mice; conditions: for expansion of CD44hiCD8+ T cells / expansion of NK cells: single dose 2.5 μg; for expansion of NK cells in PBMCs: single s.c. injection 12.5, 25 or 50 μg
Description: For flow cytometry analysis, PMBCs were prepared and surface staining was performed to quantitate NK1.1, CD3, CD8, and CD44 expressing cells. Commercial FITC-, PE- or allophycocyanin-conjugated antibodies were used. Sample data were collected on a FACScan flow cytometer (BD Biosciences) and analyzed using FlowJo cytometry analysis software (TreeStar, Ashland, Oreg.).
Pharmacodynamics of [aminopropyl]-IL-15 released from the microsphere-IL-15 of Example 10 were measured in normal, male C57BL/6J mice (n=3/group) (FIG. 14). Mice were dosed with microsphere-IL-15 (2.5, 12.5, 25 or 50 μg conjugated protein) prepared in Example 10. PMBCs were prepared and surface stained for flow cytometry analysis of NK1.1, CD3, CD8, and CD44 expressing cells. Commercial FITC-, PE- or allophycocyanin-conjugated antibodies were used. Sample data were collected on a FACScan flow cytometer (BD Biosciences) and analyzed using FlowJo cytometry analysis software (TreeStar, Ashland, Oreg.).

[4] = tested on: T-cells in the spleen and islets; test: Pharmacodynamics of IL2 and IL2[N88R,C125S] in NOD mice (flow cytometry of spleen and islets); type: in vivo; conditions: daily injections 25,000 units for five days
Description: Mice were sacrificed 2 hours after the last injection and the spleen and pancreas were harvested for flow cytometry analysis to measure changes in total number of T-cells and their differentiation in the spleen and islets.

[5] = tested on: CD8+ effector Tmem cells; conditions: continuous infusion over 10 days; cited from earlier work
[6] = tested on: Foxp3+CD4+ T-cells and CD8+ T-cells; test: Pharmacodynamics of microsphere-IL-2[N88R,C125S] in NOD mice (flow cytometry); type: in vivo
Description: Three groups of six NOD mice were used to determine the PK/PD of [aminopropyl]-IL-2[N88R,C125S] released from the microsphere-IL-2[N88R,C125S] conjugate. […] The second group was administered a subcutaneous injection of empty microspheres, in which cyclooctynes were capped with N3(CH2CH2O)7H. The third group was administered a single subcutaneous injection of the microsphere-IL-2[N88R,C125S] of Example 4 (0.5, 1, 5, 10 or 19 mg of protein/kg). Plasma, peripheral blood mononuclear cells (PBMCs) and organ tissues were prepared and analyzed according to the description in figure legends. Flow cytometric analysis of lymphocytes was performed to monitor changes in T-cell populations. The spleen and lymph nodes and islets were isolated and single cell suspensions were prepared. Surface-staining was performed following standard cell surface immunofluorescence staining for flow cytometry. Fixation and intracellular staining followed protocols from the eBioscience Foxp3/Transcription Factor Staining Buffer Set (ThermoFisher Scientific). Antibodies used were against CD3, CD4, CD8, CD25, CD44 CD45, and FoxP3; all were from commercial vendors. Stained single cell suspension were analyzed using a LSRII flow cytometer (BD Biosciences).
The percentage CD8+ cells found in the spleen and PBMCs were approximately 11% and 19% respectively. These percentages increased to approximately 25% and 60% respectively, when treated with the microsphere-IL-2[N88R,C125S]. NOD mice were administered IL2-mutein (QDx5, 25,000 units), a single injection of empty microspheres or microsphere-IL-2[N88R,C125S](18 mg/kg). Mice were sacrificed 2 hours after the last dose on day 5.
To determine an effective dose that would expand the Foxp3^+CD4^+Tcells population without the activation of CD8′ cells, a dose titration study of microsphere-IL-2[N88R,C125S] was performed. Four concentrations of the microsphere-IL-2[N88R,C125S](0.5 mg/kg, 1 mg/kg, 5 mg/kg and 10 mg/kg) were tested and the pharmacodynamics were monitored through PBMCs over two weeks. […] Foxp3^+CD4^+T-cell expansion peaked at four days and returned to baseline levels at day 14 for all doses (FIG. 9 A).

[7] = tested on: cell proliferation; conditions: cited from earlier work
[8] = 2.5, 12.5, 25 or 50 μg conjugated protein
[9] = single sc injection 12.5, 25 or 50 μg
[10] = single injection 18 mg/kg, day 5

## BAY 50-4798: IL-2 mutein having an arginine replacing asparagine at position 88, SEQ ID No: 2
[1]
  increase in selectivity for activation of Treg cells over Teff and NK cells: 3,000 fold

## MS-IL-15: BCN-activated PEG hydrogel microspheres loaded with linker-IL-15 (MeSO2 linker, N-terminal reductive alkylation)
[2]; 2.4 nmol conjugated protein
  change in average mouse body weight: no significant change
[2]; 2.4 nmol conjugated protein, initial 25.1±1.3 g
  final average mouse body weight: 25.1 ± 1.4 g
[3]; [8]
  change in average body weight: no significant change
  clinical observation: injection site reaction: no injection site reaction
[3]; 12.5, 25 or 50 μg
  fold expansion of NK cells at peak: 2-3 fold
[3]; highest dose 50 μg
  CD44hiCD8+ T cells levels at 28 days: two-fold above the control group
[3]; initial 25.1±1.3 g
  final average body weight: 25.1 ± 1.4 g
[3]; single 50 ug injection
  duration of expansion of CD44hiCD8+ T cells: 28 days
[3]
  expansion of CD44hiCD8+ T cells: no observed expansion
  expansion of NK cells: not observed
  expansion of NK cells in PBMCs: dose dependent expansion
[3]; listed as microsphere-IL15
  expansion of NK cells in PBMCs: expands
[3]; [9]
  CD44hiCD8+ T cells remained elevated above the control group through: 21 days
  expansion of CD44hiCD8+ T cells in PBMCs: dose dependent expansion
  fold expansion of CD44hiCD8+ T cells at peak: two to four fold
  time of peak CD44hiCD8+ T cell expansion post treatment: 5 days
[3]; single sc injection 12.5, 25 or 50 μg, listed as microsphere-IL15
  expansion of CD44hiCD8+ T cells in PBMCs: expands

## Proleukin: Aldesleukin (recombinant IL-2), used as native IL-2 comparator in NOD mice [reference compound]
[4]
  effect on CD4+ and CD8+ effector/memory T-cells in the spleen: increase in both T-cell populations
  effect on the T-cells in the islets compared to PBS vehicle: little to no effect

## [aminopropyl]-IL-15: IL-15 with N-terminal aminopropyl remnant, released from microsphere-IL-15
[2]; 50 μg
  AUCip compared to AUCsc: nearly two-fold higher
[2]; released from MS-IL-15 50 μg i.p.
  AUCip: 0.0252 µM·h
[2]; released from MS-IL-15 50 μg s.c.
  AUCsc: 0.0149 µM·h

## rhIL-15: native IL-15, SEQ ID No: 12 [reference compound]
[5]
  expansion of CD8+ effector Tmem cells in the peripheral blood: 100 x
[3]
  expansion of CD44hiCD8+ T cells: no observed expansion
  expansion of NK cells: not observed

## microsphere-IL-2[N88R,C125S]: PEG hydrogel microspheres carrying linker-N-terminal aminopropyl-IL-2[N88R,C125S] (MeSO2 linker, reductive alkylation); releases [aminopropyl]-IL-2[N88R,C125S]
[6]; doses 0.5-10 mg/kg, PBMCs
  percentage / activation of CD8+ cells, dose titration: did not increase; also recorded: avoids activation
[6]; [10]
  expansion of Foxp3+CD4+ T-cells in spleen and PBMC: massive expansion
  percentage CD8+ cells, PBMCs: 60%
  percentage of T-cells that were Foxp3+CD4+ T-cells, PBMC: ~55%
  percentage of T-cells that were Foxp3+CD4+ T-cells, spleen: ~70%
[6]; single injection 0.5, 1, 5, 10 mg/kg, two weeks
  expansion of Foxp3+CD4+ T-cells in PBMCs, dose titration: dose dependent expansion; also recorded: preferentially expands

## IL-15[N72D]: IL-15 mutein with enhanced receptor agonism, SEQ ID No: 15
[7]
  fold increase in biological activity over native IL-15: 4-5 fold
